For orientation: EC50 means the concentration needed to bring the measured effect to its halfway point.

The nature of the assay: Effective concentration to activate gammadelta T cells. It counts as functional, cell-based. As to conditions: t-cell.

On to `CC(O)(CI)CCOP(=O)(O)OP(=O)(O)OP(=O)(O)OCCC(C)(O)CI` (stereo not given), for which the EC50 worked out at 8.66 µM. Molecule `O=C(O)C(COP(=O)(O)O)OP(=O)(O)O` (stereo not given) returned an EC50 of 1580 µM. The molecule `CCC(=O)COP(=O)(O)OP(=O)(O)O` registered an EC50 of 44.7 µM. The result for `CC(OP(=O)(O)O)C(=O)O` (stereo not given) reads 1580 µM. Under `CC(COP(=O)(O)OP(=O)(O)O)C(C)(O)CI` (stereo not given) stands 7.07 µM; under `CC(O)(CO)CCOP(=O)(O)OP(=O)(O)O` (stereo not given), 3.16 µM; under `CCC(=O)CCOP(=O)(O)OP(=O)(O)O`, 31.6 µM.

For `CC(=O)C(C)COP(=O)(O)OP(=O)(O)O` (stereo not given), a half-maximal response (EC50) required 31.6 µM.

As to `O=P(O)(O)OCCO`, a half-maximal response (EC50) required 224 µM. Take `CC(=O)CCCOP(=O)(O)OP(=O)(O)O`: the response was half-maximal at 31.6 µM (EC50).

Molecule `CC(O)(CBr)CCOP(=O)(O)OP(=O)(O)OP(=O)(O)OCC(C)(O)CBr` (stereo not given) gave an EC50 of 14.1 µM. Under `C/C=C\COP(=O)(O)O` stands 158 µM; under `CC(C)=CCOP(=O)(O)O`, 158 µM. `C[C@@]1(CCOP(=O)(O)OP(=O)(O)O)CO1` returned an EC50 of 0.4 µM. For `O=P(O)(O)O[C@@H]1OC[C@@H](O)[C@H](O)[C@H]1O`, the EC50 came out at 1580 µM. Molecule `CCC(C)OP(=O)(O)O` (stereo not given) yielded an EC50 of 2240 µM. As for `O=P(O)(O)OCC(O)CO` (stereo not given), the EC50 is 1580 µM. Turning to `C=CCOP(=O)(O)O`, the EC50 is 158 µM. Molecule `CC(=O)CCOP(=O)(O)OP(=O)(O)O` had an EC50 of 40 µM. The molecule `NCCCC(O)(P(=O)(O)O)P(=O)(O)O` [ALENDRONIC ACID] gave an EC50 of 0.9 µM. The result for `C=CCOP(=O)(O)OP(=O)(O)O` [ALLYL PYROPHOSPHATE] reads 3.16 µM; that for `CC(O)(CBr)CCOP(=O)(O)OP(=O)(O)O` (stereo not given) [BROMOHYDRIN PYROPHOSPHATE], 0.01 µM; that for `CC(O)(CBr)CCOP(=O)(O)OP(=O)(O)OP(=O)(O)O` (stereo not given) [BROMOHYDRIN TRIPHOSPHATE], 0.346 µM. The result for `CC(O)(CCl)CCOP(=O)(O)OP(=O)(O)O` (stereo not given) [CHLOROHYDRIN PYROPHOSPHATE] reads 0.0707 µM. Under `C/C=C\COP(=O)(O)OP(=O)(O)O` [CROTYL PYROPHOSPHATE] stands 3.16 µM. `CCOP(=O)(OCC)OP(=O)(OCC)OCC` [ETHYL PYROPHOSPHATE] came in with an EC50 of 3.16 µM. In the case of `CCCCCN(C)CCC(O)(P(=O)(O)O)P(=O)(O)O` [IBANDRONIC ACID], the EC50 came to 1 µM.

Consider `CC(O)(CI)CCOP(=O)(O)OP(=O)(O)O` (stereo not given) [IODOHYDRIN PYROPHOSPHATE], for which the EC50 worked out at 0.0012 µM.

Regarding `CC(O)(CI)CCOP(=O)(O)OP(=O)(O)OP(=O)(O)O` (stereo not given) [IODOHYDRIN TRIPHOSPHATE], the EC50 worked out at 0.224 µM.

On to `C=C(C)CCOP(=O)(O)O` [ISOPENTENYL PHOSPHATE], for which the response was half-maximal at 158 µM (EC50). Regarding `NCCC(O)(P(=O)(O)O)P(=O)(O)O` [PAMIDRONIC ACID], the EC50 was determined as 5.66 µM.

The molecule `O=C(O)COP(=O)(O)O` [PHOSPHOGLYCOLIC ACID] registered an EC50 of 707 µM.

`COP(=O)(O)O` [PHOSPHORIC ACID MONOMETHYL ESTER]: the EC50 turned out to be 707 µM.

`CC(C)OP(=O)(O)O` [PHOSPHORYLISOPROPANE] displayed an EC50 of 707 µM. The result for `CCCOP(=O)(O)O` [PROPYL PHOSPHATE] reads 707 µM.

Values taken from ChEMBL document CHEMBL1135637, “Quantitative structure--activity relations for gammadelta T cell activation by phosphoantigens” (J Med Chem, 2002).
